Results: patent US9334269B2, “Carboxamides as inhibitors of voltage-gated sodium channels” (AMGEN INC., priority 2010, dated 2016)

Target: T1, human Nav1.7 (hNav1.7) (Homo sapiens, UniProt Q15858)
T1 construct: expressed in transfected cells
Assay: hNav1.7 whole-cell patch-clamp electrophysiology (automated PatchXpress 7000A or manual) in stably expressing 293 cells
Assay type: cell-based
Method: Compounds were tested on human Nav1.7 (hNav1.7) expressed stably in 293 cells, which have no endogenous sodium channels. Two forms of whole-cell patch-clamp assays were used. In both, peak current through Nav1.7 was evoked by a depolarizing voltage pulse, and currents were monitored as a function of time in response to exposure to several different concentrations of drug. Automated electrophysiology uses the PatchXpress 7000A system. Up to sixteen cells at a time were voltage-clamped in parallel, and the steady-state voltage dependence of inactivation was determined experimentally for each cell. For each cell, fractional inactivation was set at 20%, and peak current through Nav1.7 as a function of time was measured in response to increasing concentrations of test compound. Manual electrophysiology refers to conventional whole-cell patch-clamping (Hamill et al., 1981). After formation of the whole-cell clamp, cells were lifted off the bottom of the dish with the patch pipette and positioned directly in front of an array of glass microperfusion tubes each with internal diameter about 250 microns, with individual compound concentrations flowing from each tube. Current as a function of time in response to increasing drug concentrations was measured with Nav1.7 fully in the resting state (holding voltage set to −140 mV) and on the same cells with the holding voltage set to produce about 20% inactivation. Compounds were not applied for a prespecified time, but for as long as required to achieve a stable level of block. For both forms of electrophysiology, offline analysis was used to correct for rundown of channel current and to determine percent inhibition as a function of drug concentration. IC50 were determined by fitting to the Hill equation.

[1] = human Nav1.7 stably expressed in 293 cells, whole-cell patch clamp, average IC50 from Hill fit

T1 sequence (Q15858 whole entry): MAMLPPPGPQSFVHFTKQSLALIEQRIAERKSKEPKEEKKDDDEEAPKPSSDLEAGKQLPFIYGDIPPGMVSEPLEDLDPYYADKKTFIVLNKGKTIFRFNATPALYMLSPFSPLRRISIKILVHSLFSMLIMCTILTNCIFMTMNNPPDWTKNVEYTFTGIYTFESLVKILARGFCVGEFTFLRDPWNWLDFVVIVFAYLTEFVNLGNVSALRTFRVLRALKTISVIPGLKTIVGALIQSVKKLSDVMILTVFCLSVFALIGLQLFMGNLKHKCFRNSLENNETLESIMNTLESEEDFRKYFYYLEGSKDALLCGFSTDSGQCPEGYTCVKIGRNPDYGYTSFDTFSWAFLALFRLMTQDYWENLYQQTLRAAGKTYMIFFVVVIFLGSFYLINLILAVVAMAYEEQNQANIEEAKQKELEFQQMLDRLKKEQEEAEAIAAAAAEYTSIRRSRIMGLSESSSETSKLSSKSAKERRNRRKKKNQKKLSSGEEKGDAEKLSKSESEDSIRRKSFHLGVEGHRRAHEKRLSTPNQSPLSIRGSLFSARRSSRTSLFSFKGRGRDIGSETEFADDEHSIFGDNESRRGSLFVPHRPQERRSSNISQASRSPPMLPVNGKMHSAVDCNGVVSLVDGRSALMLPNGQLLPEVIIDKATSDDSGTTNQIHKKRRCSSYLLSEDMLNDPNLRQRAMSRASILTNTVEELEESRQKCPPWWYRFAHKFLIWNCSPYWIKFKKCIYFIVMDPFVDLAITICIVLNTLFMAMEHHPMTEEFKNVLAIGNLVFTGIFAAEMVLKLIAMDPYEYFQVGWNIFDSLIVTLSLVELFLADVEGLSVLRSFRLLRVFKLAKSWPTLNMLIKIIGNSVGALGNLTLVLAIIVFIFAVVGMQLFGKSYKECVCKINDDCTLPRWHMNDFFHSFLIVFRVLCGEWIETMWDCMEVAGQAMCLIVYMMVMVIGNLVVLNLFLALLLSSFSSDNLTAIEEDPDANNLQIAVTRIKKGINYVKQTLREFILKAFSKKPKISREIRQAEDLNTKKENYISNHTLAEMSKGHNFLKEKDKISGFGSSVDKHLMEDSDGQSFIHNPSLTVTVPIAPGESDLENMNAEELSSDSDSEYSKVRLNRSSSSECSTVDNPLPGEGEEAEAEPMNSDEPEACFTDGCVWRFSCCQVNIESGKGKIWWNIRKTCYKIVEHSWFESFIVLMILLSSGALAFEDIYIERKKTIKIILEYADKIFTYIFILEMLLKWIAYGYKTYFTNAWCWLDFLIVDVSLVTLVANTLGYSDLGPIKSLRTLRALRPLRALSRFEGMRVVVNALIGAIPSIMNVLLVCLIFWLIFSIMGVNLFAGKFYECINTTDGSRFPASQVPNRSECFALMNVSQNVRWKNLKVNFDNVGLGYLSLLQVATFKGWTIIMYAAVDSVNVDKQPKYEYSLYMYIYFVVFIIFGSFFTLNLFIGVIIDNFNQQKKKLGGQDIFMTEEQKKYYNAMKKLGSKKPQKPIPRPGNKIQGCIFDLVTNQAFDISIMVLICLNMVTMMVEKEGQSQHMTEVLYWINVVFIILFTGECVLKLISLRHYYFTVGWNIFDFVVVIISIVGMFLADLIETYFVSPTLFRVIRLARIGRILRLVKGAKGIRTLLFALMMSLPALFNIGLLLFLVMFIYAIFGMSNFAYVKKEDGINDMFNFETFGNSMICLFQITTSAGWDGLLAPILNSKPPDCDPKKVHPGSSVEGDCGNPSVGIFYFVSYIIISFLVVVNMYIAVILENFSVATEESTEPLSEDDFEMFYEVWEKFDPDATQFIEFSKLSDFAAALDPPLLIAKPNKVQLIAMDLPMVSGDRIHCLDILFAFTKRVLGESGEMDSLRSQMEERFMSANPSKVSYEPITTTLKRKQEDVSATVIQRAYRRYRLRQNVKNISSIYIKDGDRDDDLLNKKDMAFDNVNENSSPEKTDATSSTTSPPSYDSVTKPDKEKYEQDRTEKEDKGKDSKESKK

SMILES | IC50 (average IC50, human Nav1.7) [µM] | also measured
CNC(=O)c1cccc(Nc2ncnc(N3CCC(Cc4ccc(F)c(F)c4)CC3)n2)c1 [Example 151] | 3.1 | –
CNC(=O)c1cccc(Nc2ncnc(N3CCc4cc(F)ccc4C3)n2)c1 [Example 176] | 4.67 | –
CNC(=O)c1cccc(Nc2ncnc(N3CCCN(Cc4ccccc4)CC3)n2)c1 [Example 203] | 7.42 | –
CNC(=O)c1cccc(Nc2nccc(N3CC(Oc4ccc(F)c(C)c4)C3)n2)c1 [Example G, 3-((4-(3-(4-fluoro-3-methylphenoxy)-1-azetidinyl)-2-pyrimidinyl)amino)-N-methylbenzamide] | – | IC50 [1]: 1.41 µM
CNC(=O)c1cccc(Nc2ncnc(NCCOc3ccc(Cl)cc3)n2)c1 [Example 236] | 10.4 | –
CNC(=O)c1cccc(Nc2ncnc(N3CC(Oc4ccc(F)c(F)c4F)C3)n2)c1 [Example 226] | 9.35 | –
CNC(=O)c1cccc(Nc2nc(C)nc(N3CC(Oc4ccc(Cl)cc4F)C3)n2)c1 [Example U, 3-(4-(3-(4-chloro-2-fluorophenoxy)azetidin-1-yl)-6-methyl-1,3,5-triazin-2-ylamino)-N-methylbenzamide] | – | IC50 [1]: > 30 µM
CNC(=O)c1cccc(Nc2ncnc(N3CCC(OCc4ccc(OC(F)(F)F)cc4)CC3)n2)c1C [Example AD, N,2-dimethyl-3-((4-(4-((4-(trifluoromethoxy)benzyl)oxy)-1-piperidinyl)-1,3,5-triazin-2-yl)amino)benzamide] | – | IC50 [1]: 28.6 µM
CNC(=O)c1cccc(Nc2ncnc(N3CCN(c4cccc(OC(F)(F)F)c4)CC3)n2)c1 [Example 23] | 0.35 | –
CNC(=O)c1cccc(Nc2ncnc(N3CC(COc4ccc(Cl)cc4C)C3)n2)c1 [Example 73] | 0.9 | –
CNC(=O)c1cccc(Nc2ncnc(N(C)Cc3nc(-c4ccccc4)no3)n2)c1 [Example 280] | – | IC50 (average IC50): 27.7 µM
CNC(=O)c1cccc(Nc2ncnc(N3CCN(c4cccc(C(F)(F)F)c4)CC3)n2)c1 [Example 43] | 0.6 | –
CNC(=O)c1cccc(Nc2ncnc(N3CC(COc4ccc(Cl)c(C(F)(F)F)c4)C3)n2)c1 [Example 208] | 8.11 | –
CNC(=O)c1cccc(Nc2ncnc(N3CCC(Cc4ccc(F)cc4)CC3)n2)c1 [Example 196] | 6.4 | –
CNC(=O)c1cc(F)cc(Nc2ncnc(N3CC(Oc4ccc(Cl)cc4)C3)n2)c1 [Example 37] | 0.49 | –
CNC(=O)c1cccc(Nc2ncnc(N3CCN(CCc4ccccc4)CC3)n2)c1 [Example 109] | 1.63 | –
CNC(=O)c1cccc(Nc2ncnc(N3CCc4c(C#N)cccc4C3)n2)c1 [Example 72] | 0.9 | –
CNC(=O)c1cccc(Nc2ncnc(N3CCc4c(cnn4-c4ccc(Cl)cc4)C3)n2)c1 [Example 144] | 2.87 | –
CNC(=O)c1cccc(Nc2ncnc(N3CCN(Cc4ccc(OC(F)(F)F)cc4)CC3)n2)c1 [Example 180] | 4.85 | –
CNC(=O)c1cccc(Nc2ncnc(N3CC(Oc4ccc(F)cc4)C3)n2)c1 [Example 61] | 0.81 | –
CNC(=O)c1cc(Nc2ncnc(N3CC(Oc4ccc(Cl)cc4)C3)n2)ccc1O [Example 219] | 8.82 | –
CNC(=O)c1cccc(Nc2ncnc(N3CCC(c4ccc(C#N)c(OC(F)(F)F)c4)CC3)n2)c1 [Example 248] | 12.9 | –

SMILES | IC50 (average IC50, human Nav1.7) [µM] | also measured
CNC(=O)c1cccc(Nc2cccc(N3CC(Oc4ccc(Cl)cc4F)C3)c2)c1 [Example AG, 3-((3-(3-(4-chloro-2-fluorophenoxy)-1-azetidinyl)phenyl)amino)-N-methylbenzamide] | – | IC50 [1]: > 30 µM
CNC(=O)c1cccc(Nc2ncnc(N3CC(Oc4ccc(F)cc4Cl)C3)n2)c1 [Example 54] | 0.72 | –
CNC(=O)c1cccc(Nc2ncnc(N3CCc4oc(-c5ccccc5)cc4C3)n2)c1 [Example 265] | – | IC50 (average IC50): 19.2 µM
Cc1ccc(N2CCN(c3ncnc(Nc4ccc(Cl)c(C(N)=O)c4)n3)CC2)cc1C [Example 227] | 9.36 | –
CNC(=O)c1cccc(Nc2ncnc(N3CC(Oc4ccc(Cl)cc4F)C3)c2F)c1 [Example AB, 3-((6-(3-(4-chloro-2-fluorophenoxy)-1-azetidinyl)-5-fluoro-4-pyrimidinyl)-amino)-N-methylbenzamide] | – | IC50 [1]: > 30 µM
CNC(=O)c1cccc(Nc2ncnc(N3CCc4cc(OC(F)(F)F)ccc4C3)n2)c1 [Example 110] | 1.67 | –
CNC(=O)c1cccc(Nc2ncnc(N3CCC(Oc4ccc(OC(F)(F)F)cc4)CC3)n2)c1 [Example 58] | 0.76 | –
CNC(=O)c1cccc(Nc2ncnc(NCCCOc3ccc(OC(F)(F)F)cc3)n2)c1 [Example 13] | 0.27 | –
CNC(=O)c1cccc(Nc2nccc(N3CC(Oc4ccc(Cl)cc4)C3)n2)c1 [Example 30] | 0.43 | –
CNC(=O)c1cccc(Nc2ncnc(N3CCN(c4cccc(OC)c4)CC3)n2)c1 [Example 44] | 0.61 | –
CNC(=O)c1cccc(Nc2ncnc(N3CC(OCc4ccc(F)cc4)C3)n2)c1 [Example 272] | – | IC50 (average IC50): 21.7 µM
CNC(=O)c1cccc(Nc2ncnc(N3CCC4(CC3)OCc3ccccc34)n2)c1 [Example 259] | 17.1 | –
CNC(=O)c1cccc(Nc2ncnc(N3CC(Oc4cccc(C)c4)C3)n2)c1 [Example 49] | 0.65 | –
O=C(NC1CC1)c1cccc(Nc2ncnc(N3CC(Oc4ccc(F)cc4)C3)n2)c1 [Example 205] | 7.42 | –
CNC(=O)c1cccc(Nc2ncnc(N3CC(Oc4ccc(C5CCCC5)cc4)C3)n2)c1 [Example 264] | – | IC50 (average IC50): 18.9 µM
CNC(=O)c1cccc(Nc2nccc(N3CC(Oc4ccc(F)c(Cl)c4)C3)n2)c1 [Example F, 3-((4-(3-(3-chloro-4-fluorophenoxy)-1-azetidinyl)-2-pyrimidinyl)amino)-N-methylbenzamide] | – | IC50 [1]: 2.83 µM
CNC(=O)c1cccc(Nc2ncnc(N3CC(Oc4cccc(C(F)(F)F)c4F)C3)n2)c1 [Example 256] | 16.7 | –
CNC(=O)c1cccc(Nc2nccc(N3CC(Oc4ccc(F)c(F)c4)C3)n2)c1 [Example 106] | 1.6 | –
CNC(=O)c1c(F)ccc(Nc2ncnc(N3CC(COc4ccc(Cl)cc4)C3)n2)c1F [Example 161] | 3.67 | –
CNC(=O)c1cccc(Nc2ncnc(N3CC(COc4ccc(Cl)cc4Cl)C3)n2)c1 [Example 132] | 2.55 | –
CNC(=O)c1cccc(Nc2ncnc(N3CC(Oc4ccc(Cl)cc4F)C3)n2)c1 [Example Q, 3-(4-(3-(4-chloro-2-fluorophenoxy)azetidin-1-yl)-1,3,5-triazin-2-ylamino)-N-methylbenzamide] | – | IC50 [1]: 2.99 µM
CNC(=O)c1cc(Nc2ncnc(N3CC(Oc4ccc(F)cc4)C3)n2)ccc1C [Example 266] | – | IC50 (average IC50): 19.7 µM

SMILES | IC50 (average IC50, human Nav1.7) [µM] | also measured
CNC(=O)c1cccc(Nc2ncnc(N3CCC(c4nc(-c5ccccc5)c(C)s4)CC3)n2)c1 [Example 168] | 4.22 | –
CNC(=O)c1cccc(Nc2ncnc(N3CC(COCc4ccc(Cl)cc4)C3)n2)c1 [Example 241] | 11.1 | –
CNC(=O)c1cccc(Nc2ncnc(N3CCc4ccccc4C3)n2)c1 [Example 243] | 11.5 | –
CNC(=O)c1cccc(Nc2ncnc(N3CC(Oc4ccc5c(c4)CCC5)C3)n2)c1 [Example 22] | 0.35 | –
NC(=O)c1cc(Nc2ncnc(N3CC(Oc4ccc(F)cc4)C3)n2)ccc1F [Example 291] | – | IC50 (average IC50): > 30 µM
CNC(=O)c1cccc(Nc2ncnc(N3CC(Oc4ccc(F)cc4C)C3)n2)c1 [Example 16] | 0.29 | –
CNC(=O)c1cccc(Nc2ncnc(N3CCC(CCCc4ccccc4)CC3)n2)c1 [Example 294] | – | IC50 (average IC50): > 30 µM
CNC(=O)c1cccc(Nc2ncnc(N3CC(Oc4ccc(C(C)C)cc4)C3)n2)c1 [Example 42] | 0.57 | –
CNC(=O)c1cccc(Nc2cc(N3CC(Oc4ccc(Cl)cc4F)C3)ccn2)c1 [Example T, 3-(4-(3-(4-chloro-2-fluorophenoxy)azetidin-1-yl)pyridin-2-ylamino)-N-methylbenzamide] | – | IC50 [1]: 4.5 µM
CNC(=O)c1cccc(Nc2nccc(N3CC(Oc4ccc(Cl)cc4C)C3)n2)c1 [Example N, 3-((4-(3-(4-chloro-2-methylphenoxy)-1-azetidinyl)-2-pyrimidinyl)amino)-N-methylbenzamide] | – | IC50 [1]: 0.26 µM
CNC(=O)c1cccc(Nc2ncnc(N3CCc4c(cccc4OCC(F)(F)F)C3)n2)c1 [Example 137] | 2.73 | –
CNC(=O)c1cc(Nc2ncnc(NCCCOc3cccc(C(F)(F)F)c3)n2)ccc1Cl [Example 164] | 3.75 | –
CNC(=O)c1cccc(Nc2ncnc(N3CCC(C(=O)c4ccccc4)CC3)n2)c1 [Example 88] | 1.24 | –
CNC(=O)c1cccc(Nc2ncnc(N3CCc4cc(OCC(F)(F)F)ccc4C3)n2)c1C [Example 275] | – | IC50 (average IC50): 22.6 µM
CNC(=O)c1cccc(Nc2ncnc(N3CCC(OCc4cccc(C(F)(F)F)c4)CC3)n2)c1 [Example 239] | 10.8 | –
CNC(=O)c1cccc(Nc2ncnc(N3CC(Oc4cc(F)cc(F)c4)C3)n2)c1 [Example 187] | 5.43 | –
CNC(=O)c1cccc(Nc2ncnc(N3CCN(c4ccccc4F)CC3)n2)c1 [Example 95] | 1.35 | –
CNC(=O)c1cccc(Nc2ncnc(NCCCOc3ccc(Cl)cc3)n2)c1 [Example 152] | 3.1 | –
CNC(=O)c1cccc(Nc2ncnc(N3CC(Oc4ccc(F)cc4F)C3)n2)c1 [Example 148] | 2.95 | –
CNC(=O)c1cccc(Nc2ncnc(N3CCC(Sc4ccc(C)cc4)CC3)n2)c1 [Example 250] | 13.1 | –
